Measurements from patent US20240190880A1 (THE REGENTS OF THE UNIVERSITY OF MICHIGAN, priority 2021, published 2024).

These compounds were tested against T1, ER (Homo sapiens, UniProt P03372) (assay: ER degradation activity, in-cell western blot analysis in T47D cells). Settings: 16 hours, Table A does not say which cell line (T47D or MCF7), read-out: Potency (DC50).
T1 construct: host or cells: T47D and MCF7 human breast cancer cells
T1 sequence (P03372 1-595): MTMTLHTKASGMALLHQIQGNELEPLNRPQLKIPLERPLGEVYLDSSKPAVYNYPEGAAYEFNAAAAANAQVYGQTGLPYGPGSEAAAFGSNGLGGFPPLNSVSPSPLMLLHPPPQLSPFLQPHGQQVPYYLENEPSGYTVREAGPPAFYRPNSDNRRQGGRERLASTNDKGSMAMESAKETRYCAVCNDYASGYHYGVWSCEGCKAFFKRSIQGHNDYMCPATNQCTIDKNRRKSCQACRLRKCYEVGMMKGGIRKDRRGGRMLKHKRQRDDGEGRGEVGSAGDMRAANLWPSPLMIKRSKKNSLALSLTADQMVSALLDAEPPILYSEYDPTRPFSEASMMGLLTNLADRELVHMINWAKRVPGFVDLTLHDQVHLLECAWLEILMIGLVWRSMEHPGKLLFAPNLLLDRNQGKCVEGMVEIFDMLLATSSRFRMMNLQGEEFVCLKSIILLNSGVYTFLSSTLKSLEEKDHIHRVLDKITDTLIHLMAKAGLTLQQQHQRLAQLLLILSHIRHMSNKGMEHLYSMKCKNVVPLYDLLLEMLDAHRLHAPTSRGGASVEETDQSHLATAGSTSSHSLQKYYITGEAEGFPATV
Assay type: cell-based
Method in brief: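 T47D cells grown in DMEM with 10% FBS were treated with compounds for 16 hours at 0.5% DMSO final. ER was detected by in-cell western using 680/800 near-infrared secondary antibodies. Residual ER is given as percent of untreated and DMSO-treated wells set to 100%.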
In the case of `O=C1CCC(N2C(=O)c3cc4c(cc3C2=O)CN(CC(=O)N2CCC3(CC2)CCN(c2ccc([C@@H]5c6ccc(O)cc6CC[C@@H]5c5ccccc5)cn2)CC3)C4)C(=O)N1` (mixture of isomers) [E 297, Rac-2-(2,6-dioxopiperidin-3-yl)-6-(2-(9-(5-((1S,2S)-6-hydroxy-2-phenyl-1,2,3,4-tetrahydronaphthalen-1-yl)pyridin-2-yl)-3,9-diazaspiro[5.5]undecan-3-yl)-2-oxoethyl)-6,7-dihydropyrrolo[3,4-f]isoindole-1,3(2H,5H)-dione], the DC50 is reported as > 100 nM. With `O=C1CCC(N2C(=O)c3cc4c(cc3C2=O)CN(CC(=O)N2CCC3(CC2)CCN(c2ncc([C@@H]5c6ccc(O)cc6CC[C@@H]5c5ccccc5)cn2)CC3)C4)C(=O)N1` (mixture of isomers) [E 298, Rac-2-(2,6-dioxopiperidin-3-yl)-6-(2-(9-(5-((1S,2S)-6-hydroxy-2-phenyl-1,2,3,4-tetrahydronaphthalen-1-yl)pyrimidin-2-yl)-3,9-diazaspiro[5.5]undecan-3-yl)-2-oxoethyl)-6,7-dihydropyrrolo[3,4-f]isoindole-1,3(2H,5H)-dione] the DC50 was > 100 nM. For `CN(C1CCN(c2ccc([C@@H]3c4ccc(O)cc4CC[C@@H]3c3ccccc3)cc2)CC1)N1CCC(CN2Cc3cc4c(cc3C2)C(=O)N(C2CCC(=O)NC2=O)C4)CC1` (mixture of isomers) [E 300, 3-(6-((1-((1-(4-((1R,2S)-6-hydroxy-2-phenyl-1,2,3,4-tetrahydronaphthalen-1-yl)phenyl)piperidin-4-yl)(methyl)amino)piperidin-4-yl)methyl)-1-oxo-3,5,6,7-tetrahydropyrrolo[3,4-f]isoindol-2(1H)-yl)piperidine-2,6-dione], the DC50 was > 100 nM. `O=C1CCC(N2C(=O)c3cc4c(cc3C2=O)CN(CC(=O)N2CCC3(CC2)CCN(c2cnc([C@@H]5c6ccc(O)cc6CC[C@@H]5c5ccccc5)cn2)CC3)C4)C(=O)N1` (mixture of isomers) [E 304, Rac-2-(2,6-dioxopiperidin-3-yl)-6-(2-(9-(5-((1S,2S)-6-hydroxy-2-phenyl-1,2,3,4-tetrahydronaphthalen-1-yl)pyrazin-2-yl)-3,9-diazaspiro[5.5]undecan-3-yl)-2-oxoethyl)-6,7-dihydropyrrolo[3,4-f]isoindole-1,3(2H,5H)-dione] was tested, and the DC50 was > 100 nM. For `O=C1CCC(N2C(=O)c3cc4c(cc3C2=O)CN(CC(=O)N2CCC3(CC2)CCN(c2ccc([C@@H]5c6ccc(O)cc6CC[C@@H]5c5ccccc5)nc2)CC3)C4)C(=O)N1` (mixture of isomers) [E 305, Rac-2-(2,6-dioxopiperidin-3-yl)-6-(2-(9-(6-((1S,2S)-6-hydroxy-2-phenyl-1,2,3,4-tetrahydronaphthalen-1-yl)pyridin-3-yl)-3,9-diazaspiro[5.5]undecan-3-yl)-2-oxoethyl)-6,7-dihydropyrrolo[3,4-f]isoindole-1,3(2H,5H)-dione], the DC50 was > 100 nM. For `O=C1CCC(N2C(=O)c3cc4c(cc3C2=O)CN(CC(=O)N2CCC3(CC2)CCN(c2ccc([C@@H]5c6ccc(O)cc6CC[C@@H]5c5ccccc5)nn2)CC3)C4)C(=O)N1` (mixture of isomers) [E 306, Rac-2-(2,6-dioxopiperidin-3-yl)-6-(2-(9-(6-((1S,2S)-6-hydroxy-2-phenyl-1,2,3,4-tetrahydronaphthalen-1-yl)pyridazin-3-yl)-3,9-diazaspiro[5.5]undecan-3-yl)-2-oxoethyl)-6,7-dihydropyrrolo[3,4-f]isoindole-1,3(2H,5H)-dione], the DC50 was > 100 nM. For `C[C@@H]1Cc2cc(O)ccc2[C@@H](c2c(F)cc(N3CCN(C(=O)[C@H]4CC[C@@H](N5Cc6cc7c(cc6C5)C(=O)N(C5CCC(=O)NC5=O)C7=O)CC4)CC3)cc2F)N1CC(F)F` (mixture of isomers) [E 352, Rac-6-((1R,4s)-4-(4-(4-((1S,3R)-2-(2,2-difluoroethyl)-6-hydroxy-3-methyl-1,2,3,4-tetrahydroisoquinolin-1-yl)-3,5-difluorophenyl)piperazine-1-carbonyl)cyclohexyl)-2-(2,6-dioxopiperidin-3-yl)-6,7-dihydropyrrolo[3,4-f]isoindole-1,3(2H,5H)-dione], the DC50 was > 100 nM. In the case of `C[C@@H]1Cc2cc(O)ccc2[C@@H](c2c(F)cc(N3CCN(C(=O)[C@H]4CC[C@H](N5Cc6cc7c(cc6C5)C(=O)N(C5CCC(=O)NC5=O)C7=O)CC4)CC3)cc2F)N1CC(F)F` (mixture of isomers) [E 353, rac-6-((1S,4r)-4-(4-(4-((1S,3R)-2-(2,2-difluoroethyl)-6-hydroxy-3-methyl-1,2,3,4-tetrahydroisoquinolin-1-yl)-3,5-difluorophenyl)piperazine-1-carbonyl)cyclohexyl)-2-(2,6-dioxopiperidin-3-yl)-6,7-dihydropyrrolo[3,4-f]isoindole-1,3(2H,5H)-dione], the DC50 is reported as > 100 nM. With `CN(C1CN(c2ccc([C@@H]3c4ccc(O)cc4CC[C@@H]3c3ccccc3)cc2)C1)[C@H]1CC[C@H](C(=O)N2Cc3cc4c(cc3C2)C(=O)N(C2CCC(=O)NC2=O)C4)CC1` (single isomer, unassigned) [E 355] the DC50 was > 100 nM. `CN(C1CN(c2ccc([C@@H]3c4ccc(O)cc4CC[C@@H]3c3ccccc3)cc2)C1)[C@H]1CC[C@@H](C(=O)N2Cc3cc4c(cc3C2)C(=O)N(C2CCC(=O)NC2=O)C4)CC1` (single isomer, unassigned) [E 356] was tested, and the DC50 was > 100 nM. With `O=C1CCC(N2Cc3cc4c(cc3C2=O)CN(C(=O)[C@H]2CC[C@H](N3CC(Oc5ccc([C@@H]6c7ccc(O)cc7CC[C@@H]6c6ccccc6)cc5)C3)CC2)C4)C(=O)N1` (single isomer, unassigned) [E 357] the DC50 was < 10 nM.

Same assay, conditions: compounds 16 hours, Table A does not say whether T47D or MCF7, read-out: Potency (DC50)
For `O=C1CCC(N2C(=O)c3cc4c(cc3C2=O)CN(CC(=O)N2CCC3(CC2)CCN(c2ccc([C@@H]5c6ccc(O)cc6OC[C@@H]5c5ccccc5)cc2)CC3)C4)C(=O)N1` (mixture of isomers) [E 467, 2-(2,6-dioxopiperidin-3-yl)-6-(2-(9-(4-(7-hydroxy-3-phenylchroman-4-yl)phenyl)-3,9-diazaspiro[5.5]undecan-3-yl)-2-oxoethyl)-6,7-dihydropyrrolo[3,4-f]isoindole-1, 3(2H,5H)-dione], the DC50 was > 100 nM. A DC50 of 10 to 100 nM was found for `C[C@@H]1Cc2c(ccc3[nH]ncc23)[C@@H](c2c(F)cc(C3=CCC(C(=O)N4CCC(N5Cc6cc7c(cc6C5)C(=O)N(C5CCC(=O)NC5=O)C7=O)CC4)CC3)cc2F)N1CC(F)F` (mixture of isomers) [E 468, 6-(1-(4′-((6S,8R)-7-(2,2-difluoroethyl)-8-methyl-6,7,8,9-tetrahydro-3H-pyrazolo[4,3-f]isoquinolin-6-yl)-3′,5′-difluoro-2,3,4,5-tetrahydro-[1,1′-biphenyl]-4-carbonyl)piperidin-4-yl)-2-(2,6-dioxopiperidin-3-yl)-6,7-dihydropyrrolo[3,4-f]isoindole-1,3(2H,5H)-dione] in this work. With `CC1(C(=O)N2CCC(N3Cc4cc5c(cc4C3)C(=O)N(C3CCC(=O)NC3=O)C5=O)CC2)CCN(c2ccc([C@@H]3c4ccc(O)cc4CC[C@@H]3c3ccccc3)cc2)CC1` (mixture of isomers) [E 488, rac-2-(2,6-dioxopiperidin-3-yl)-6-(1-(1-(4-((1R,2S)-6-hydroxy-2-phenyl-1,2,3,4-tetrahydronaphthalen-1-yl)phenyl)-4-methylpiperidine-4-carbonyl)piperidin-4-yl)-6,7-dihydropyrrolo[3,4-f]isoindole-1,3(2H,5H)-dione] the DC50 was > 100 nM. A DC50 of 10 to 100 nM was found for `O=C1CCC(N2C(=O)c3cc4c(cc3C2=O)CN(C2CCN(C(=O)[C@H]3C[C@@H](Oc5ccc([C@@H]6c7ccc(O)cc7CC[C@@H]6c6ccccc6)cc5)C3)CC2)C4)C(=O)N1` (mixture of isomers) [E 490, 2-(2,6-dioxopiperidin-3-yl)-6-(1-((1SR,3SR)-3-(4-((1R,2S)-6-hydroxy-2-phenyl-1,2,3,4-tetrahydronaphthalen-1-yl)phenoxy)cyclobutane-1-carbonyl)piperidin-4-yl)-6,7-dihydropyrrolo[3,4-f]isoindole-1,3(2H,5H)-dione] in this work. A DC50 of 10 to 100 nM was found for `O=C1CCC(N2Cc3cc4c(cc3C2=O)CN(C(=O)[C@H]2CC[C@H](CN3CC(Oc5ccc([C@@H]6c7ccc(O)cc7CC[C@@H]6c6ccccc6)cc5)C3)CC2)C4)C(=O)N1` (mixture of isomers) [E 491] in this work. A DC50 of 10 to 100 nM was found for `O=C1CCC(N2C(=O)c3cc4c(cc3C2=O)CN(C[C@H]2CC[C@H](C(=O)N3CC(Oc5ccc([C@@H]6c7ccc(O)cc7CC[C@@H]6c6ccccc6)cc5)C3)CC2)C4)C(=O)N1` (mixture of isomers) [E 498, 2-(2,6-dioxopiperidin-3-yl)-6-(((IRS,4SR)-4-(3-(4-((1R,2S)-6-hydroxy-2-phenyl-1,2,3,4-tetrahydronaphthalen-1-yl)phenoxy)azetidine-1-carbonyl)cyclohexyl)methyl)-6,7-dihydropyrrolo[3,4-f]isoindole-1,3(2H,5H)-dione] in this work. A DC50 of 10 to 100 nM was found for `O=C1CCC(N2Cc3cc4c(cc3C2=O)CN(C[C@H]2CC[C@H](C(=O)N3CC(Oc5ccc([C@@H]6c7ccc(O)cc7CC[C@@H]6c6ccccc6)cc5)C3)CC2)C4)C(=O)N1` (mixture of isomers) [E 499, 3-(6-(((IRS,4SR)-4-(3-(4-((1R,2S)-6-hydroxy-2-phenyl-1,2,3,4-tetrahydronaphthalen-1-yl)phenoxy)azetidine-1-carbonyl)cyclohexyl)methyl)-1-oxo-3,5,6,7-tetrahydropyrrolo[3,4-f]isoindol-2(1H)-yl)piperidine-2,6-dione] in this work.
